Reference: ChEMBL document CHEMBL1140243, “Synthesis and SAR of 2,3-diarylpyrrole inhibitors of parasite cGMP-dependent protein kinase as novel anticoccidial agents” (Bioorg Med Chem Lett, 2005)

Columns and labels:
Type in all cases: functional
Parameters in all cases: scale not given: the % may be the effect or the level left
Gallus gallus [1] = organism: Gallus gallus; assay: Anticoccidial activity (percent reduction in oocyst production) against Eimeria maxima in chickens at 66 ppm; Range = 50-79 %
Gallus gallus [2] = organism: Gallus gallus; assay: Anticoccidial activity (percent reduction in oocyst production) against Eimeria tenella in chickens at 66 ppm; Range = 50-79 %
Gallus gallus [3] = organism: Gallus gallus; assay: Anticoccidial activity (percent reduction in oocyst production) against Eimeria mivati in chickens at 66 ppm; Range = 50-79 %
Gallus gallus [4] = organism: Gallus gallus; assay: Anticoccidial activity (percent reduction in oocyst production) against Eimeria acervulina in chickens at 66 ppm; Range = 50-79 %
Gallus gallus [5] = organism: Gallus gallus; assay: Anticoccidial activity (percent reduction in oocyst production) against Eimeria mitis in chickens at 66 ppm; Range = 50-79 %
Gallus gallus [6] = organism: Gallus gallus; assay: Anticoccidial activity (percent reduction in oocyst production) against Eimeria necatrix in chickens at 66 ppm; Range = 50-79 %
Gallus gallus [7] = organism: Gallus gallus; assay: Anticoccidial activity (percent reduction in oocyst production) against Eimeria brunetti in chickens at 66 ppm; Range = 50-79 %
Gallus gallus [8] = organism: Gallus gallus; assay: Anticoccidial activity (percent reduction in oocyst production) against Eimeria praecox in chickens at 66 ppm; Range = 50-79 %

Measured: Activity

CC[C@@H](C(=O)[C@@H](C)[C@@H](O)[C@H](C)[C@@H]1O[C@@H]([C@@H](CC)C(=O)O)CC[C@@H]1C)[C@H]1O[C@]2(C=C[C@@H](O)[C@]3(CC[C@@](C)([C@H]4CC[C@](O)(CC)[C@H](C)O4)O3)O2)[C@H](C)C[C@@H]1C [SALINOMYCIN]
<79%: Gallus gallus [1] | Gallus gallus [2] | Gallus gallus [3] | Gallus gallus [4] | Gallus gallus [5] | Gallus gallus [6] | Gallus gallus [7] | Gallus gallus [8]
